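Following 48 hours of exposure in 96-well plates, responses at five concentrations were used to interpolate endpoints linearly. GI50: concentration for 50% inhibition of growth.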 Activity calls are given as the source filed them. No stated cut-off is given here; in the data, active = GI50 up to about 1.1 µM and inactive = higher.
Columns and labels:
Test in all cases: NCI-60 cell line screen, 48 h
[1] = test system: KM12
[2] = test system: COLO 205
[3] = test system: ACHN
[4] = test system: HOP-92
[5] = test system: SW-620
[6] = test system: UACC-257
[7] = test system: PC-3
[8] = test system: SK-MEL-28
[9] = test system: HCT-116
[10] = test system: SF-268
[11] = test system: SK-MEL-5
[12] = test system: CAKI-1
[13] = test system: MDA-MB-435
[14] = test system: OVCAR-3
[15] = test system: K562
[16] = test system: RPMI-8226
[17] = test system: MDA-MB-231
[18] = test system: SNB-19
[19] = test system: HL-60
[20] = test system: SK-MEL-2

Structure (SMILES) | GI50 [1] | GI50 [2] | GI50 [3] | GI50 [4] | GI50 [5] | GI50 [6] | GI50 [7] | GI50 [8] | GI50 [9] | GI50 [10] | GI50 [11] | GI50 [12] | GI50 [13] | GI50 [14] | GI50 [15] | GI50 [16] | GI50 [17] | GI50 [18] | GI50 [19] | GI50 [20]
CCOc1ccc(NCC2CC/C(=C\c3ccc(O)cc3)C2=O)cc1 (stereo not given) | 12.2 µM (inactive) | 13.6 µM (inactive) | 17 µM (inactive) | 15.2 µM (inactive) | 3.03 µM (inactive) | 16.9 µM (inactive) | 16.9 µM (inactive) | 15.5 µM (inactive) | 9.64 µM (inactive) | 15.8 µM (inactive) | 19.1 µM (inactive) | 17.1 µM (inactive) | 18.4 µM (inactive) | 12.2 µM (inactive) | 3.89 µM (inactive) | 4.02 µM (inactive) | 19.2 µM (inactive) | 25.5 µM (inactive) | 2.22 µM (inactive) | –
COc1ccc(-c2cc(-c3ccccc3)nc(N)n2)c(O)c1 | 4.67 µM (inactive) | > 100 µM (inactive) | 21.1 µM (inactive) | > 43 µM (inactive) | 5.32 µM (inactive) | > 100 µM (inactive) | 6.68 µM (inactive) | > 83.4 µM (inactive) | > 100 µM (inactive) | 17.8 µM (inactive) | 7.16 µM (inactive) | – | 3.56 µM (inactive) | > 49.5 µM (inactive) | 2.19 µM (inactive) | 2.31 µM (inactive) | > 26.2 µM (inactive) | > 82.8 µM (inactive) | 2.02 µM (inactive) | 7.08 µM (inactive)
N#CC12CC(C=O)=C(N)C1(C#N)CC(C=O)=C2N (stereo not given) | 88.9 µM (inactive) | > 100 µM (inactive) | > 100 µM (inactive) | 32.5 µM (inactive) | 49.7 µM (inactive) | 32.3 µM (inactive) | 72.3 µM (inactive) | 38.5 µM (inactive) | 47.3 µM (inactive) | 31.1 µM (inactive) | 20.8 µM (inactive) | > 100 µM (inactive) | 36.1 µM (inactive) | – | 45.9 µM (inactive) | 52.6 µM (inactive) | > 100 µM (inactive) | 52.8 µM (inactive) | 23.7 µM (inactive) | 24.1 µM (inactive)
Cc1occc1C(=S)Nc1ccc(Cl)c(C(=O)OC(C(C)C)C(C)C)c1 | 12.5 µM (inactive) | 9.59 µM (inactive) | 12.1 µM (inactive) | 7.82 µM (inactive) | 16.6 µM (inactive) | 4.85 µM (inactive) | 7.46 µM (inactive) | 12.5 µM (inactive) | 10.1 µM (inactive) | 18.5 µM (inactive) | 14.6 µM (inactive) | 17.1 µM (inactive) | 15.1 µM (inactive) | 13.4 µM (inactive) | – | 6.11 µM (inactive) | 12.6 µM (inactive) | 21.3 µM (inactive) | 10.8 µM (inactive) | 16.5 µM (inactive)
CC1(C)OC[C@@H](O)[C@H](C#N)CO1 | > 100 µM (inactive) | > 100 µM (inactive) | > 100 µM (inactive) | – | > 100 µM (inactive) | > 100 µM (inactive) | > 100 µM (inactive) | > 100 µM (inactive) | > 100 µM (inactive) | > 100 µM (inactive) | > 100 µM (inactive) | > 100 µM (inactive) | > 100 µM (inactive) | > 100 µM (inactive) | > 100 µM (inactive) | > 100 µM (inactive) | > 100 µM (inactive) | > 100 µM (inactive) | > 100 µM (inactive) | > 100 µM (inactive)
COc1cc2c(cc1OC)C1C3CCCCC3CCN1CC2 (stereo not given) | > 100 µM (inactive) | 67 µM (inactive) | > 100 µM (inactive) | > 100 µM (inactive) | > 100 µM (inactive) | > 100 µM (inactive) | > 100 µM (inactive) | > 100 µM (inactive) | 48.6 µM (inactive) | > 100 µM (inactive) | > 100 µM (inactive) | > 100 µM (inactive) | > 100 µM (inactive) | 79.4 µM (inactive) | > 100 µM (inactive) | – | > 100 µM (inactive) | > 100 µM (inactive) | > 100 µM (inactive) | > 100 µM (inactive)
Cc1cc(Cl)nc(NC(=O)CSc2ccc(Cl)cc2)n1 | > 100 µM (inactive) | – | > 100 µM (inactive) | > 100 µM (inactive) | > 100 µM (inactive) | > 100 µM (inactive) | > 100 µM (inactive) | > 100 µM (inactive) | > 100 µM (inactive) | > 100 µM (inactive) | > 100 µM (inactive) | – | > 100 µM (inactive) | > 100 µM (inactive) | > 100 µM (inactive) | 38.6 µM (inactive) | > 100 µM (inactive) | > 100 µM (inactive) | > 100 µM (inactive) | > 100 µM (inactive)
Nc1nc(NNc2ccc(Cl)c(Cl)c2)cc(=O)[nH]1 | 30.8 µM (inactive) | 16.6 µM (inactive) | 35.6 µM (inactive) | 21.9 µM (inactive) | 22.8 µM (inactive) | 43.2 µM (inactive) | 34 µM (inactive) | 52.1 µM (inactive) | 52.4 µM (inactive) | 19.7 µM (inactive) | 33.4 µM (inactive) | – | 25.4 µM (inactive) | 23 µM (inactive) | 18.9 µM (inactive) | 32.2 µM (inactive) | 33.8 µM (inactive) | 72.6 µM (inactive) | 26.4 µM (inactive) | –
O=C(c1ccccc1)c1c2ccccn2c2cccc[n+]12 | > 100 µM (inactive) | 20.1 µM (inactive) | – | > 100 µM (inactive) | > 100 µM (inactive) | > 100 µM (inactive) | > 100 µM (inactive) | > 100 µM (inactive) | > 100 µM (inactive) | > 100 µM (inactive) | 47 µM (inactive) | > 100 µM (inactive) | > 100 µM (inactive) | > 100 µM (inactive) | > 100 µM (inactive) | > 100 µM (inactive) | > 100 µM (inactive) | – | 79.6 µM (inactive) | > 100 µM (inactive)
CC(=O)NNC(=S)N/C=C1/C(=O)Oc2ccccc2C1=O | > 100 µM (inactive) | > 100 µM (inactive) | > 100 µM (inactive) | – | > 100 µM (inactive) | > 100 µM (inactive) | > 100 µM (inactive) | > 100 µM (inactive) | > 100 µM (inactive) | > 100 µM (inactive) | > 100 µM (inactive) | > 100 µM (inactive) | > 100 µM (inactive) | > 100 µM (inactive) | > 100 µM (inactive) | > 100 µM (inactive) | > 100 µM (inactive) | > 100 µM (inactive) | > 100 µM (inactive) | > 100 µM (inactive)
C=CCn1c(-c2ccc([N+](=O)[O-])cc2)cs/c1=N\C(P(=O)(O)O)P(=O)(O)O | > 100 µM (inactive) | > 100 µM (inactive) | > 100 µM (inactive) | > 100 µM (inactive) | > 100 µM (inactive) | > 100 µM (inactive) | > 100 µM (inactive) | > 100 µM (inactive) | > 100 µM (inactive) | > 100 µM (inactive) | > 100 µM (inactive) | > 100 µM (inactive) | > 100 µM (inactive) | > 100 µM (inactive) | > 100 µM (inactive) | > 100 µM (inactive) | > 100 µM (inactive) | > 100 µM (inactive) | 0.0383 µM (active) | –
O=Cc1cc(O)c(O)c(/C=N/n2c3ccccc3c3ccccc32)c1 | 7.76 µM (inactive) | 10.8 µM (inactive) | 4.25 µM (inactive) | 2.72 µM (inactive) | 5.15 µM (inactive) | 11.7 µM (inactive) | 10.1 µM (inactive) | 12.9 µM (inactive) | 3.37 µM (inactive) | 3.98 µM (inactive) | – | 16.1 µM (inactive) | 11.3 µM (inactive) | 2.44 µM (inactive) | 4.11 µM (inactive) | 2.05 µM (inactive) | 7.1 µM (inactive) | 8.61 µM (inactive) | 2.33 µM (inactive) | –
CC(O)(c1ccccc1)c1nccc2ccccc12 (stereo not given) | 36.4 µM (inactive) | 70.6 µM (inactive) | > 100 µM (inactive) | 22.4 µM (inactive) | 77.6 µM (inactive) | > 100 µM (inactive) | 22.6 µM (inactive) | > 100 µM (inactive) | 61.4 µM (inactive) | 95.7 µM (inactive) | 44.2 µM (inactive) | > 100 µM (inactive) | 18.2 µM (inactive) | 57.9 µM (inactive) | 35.8 µM (inactive) | 37.3 µM (inactive) | 20.1 µM (inactive) | > 100 µM (inactive) | > 100 µM (inactive) | –
Cc1c(/C=N/NC(=S)Nc2ccccc2)c(=O)n(-c2ccccc2)n1C | > 100 µM (inactive) | > 100 µM (inactive) | > 100 µM (inactive) | > 100 µM (inactive) | > 100 µM (inactive) | > 100 µM (inactive) | > 100 µM (inactive) | > 100 µM (inactive) | > 100 µM (inactive) | > 100 µM (inactive) | > 100 µM (inactive) | 46.2 µM (inactive) | > 100 µM (inactive) | – | 31.2 µM (inactive) | > 100 µM (inactive) | > 100 µM (inactive) | > 100 µM (inactive) | > 100 µM (inactive) | > 100 µM (inactive)
CCCc1c(O)nc(Nc2nc3ccccc3[nH]2)[nH]c1=O | > 100 µM (inactive) | > 100 µM (inactive) | > 100 µM (inactive) | > 100 µM (inactive) | > 100 µM (inactive) | > 100 µM (inactive) | > 100 µM (inactive) | – | > 100 µM (inactive) | > 100 µM (inactive) | > 100 µM (inactive) | > 100 µM (inactive) | > 100 µM (inactive) | – | > 100 µM (inactive) | > 100 µM (inactive) | > 100 µM (inactive) | > 100 µM (inactive) | 84.9 µM (inactive) | > 100 µM (inactive)
